This note sets out measurements from US8148391B2 (Cephalon, Inc., priority 2006, dated 2012).

Test [1] deals with T1, baculovirus-expressed ALK (Homo sapiens, UniProt Q9UM73).
T1 construct: host or cells: baculovirus expression system
In words: ALK Kinase Assay (ELISA-type, time-resolved fluorescence). The class given is biochemical. An outline of the steps:
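Substrate coating: phospholipase C-γ, 10 μg/mL in TBS. Kinase step: 30 ng/ml ALK, 15 min, 37° C. Detection and analysis: Eu-N1 PT66 antibody, with IC50 fitted as a sigmoidal variable-slope dose-response curve.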

Test [2] has as its target T2, c-Met (cytoplasmic domain) (Homo sapiens, UniProt P08581).
T2 construct: 10 ng/mL c-Met (cytoplasmic domain, Invitrogen Corporation #PV3143); purchased Invitrogen Corporation PV3143
Nature of the test: c-Met Kinase Assay (same methods as for ALK, with modifications). It counts as biochemical. The essentials:
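Wells were coated with 10 μg/mL phospholipase C-γ substrate in TBS, and reactions were started with 10 ng/mL c-Met cytoplasmic domain and run at 37° C for 15 minutes. Phosphorylated product was detected with Eu-N1-labeled PT66 antibody. IC50 values came from sigmoidal variable-slope fits of percent inhibition versus log compound concentration.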

Setting [3] is: 1 μM ATP (Km level), read-out: ALK Activity (ALK Kinase Inhibition, IC50).
[4] abbreviates: 1 μM ATP (Km level), read-out: cMet Activity (c-Met Kinase Inhibition, IC50).
Setting [5] is: ALK kinase inhibition, 1 μM ATP (Km level), read-out: ALK Activity.
Setting [6] is: c-Met kinase inhibition, 1 μM ATP (Km level), read-out: cMet Activity.
Where [7] appears, read: ALK kinase inhibition, 1 μM ATP, read-out: ALK Activity.
The mark [8] stands for this setting: c-Met kinase inhibition, 1 μM ATP, read-out: cMet Activity.
[9] abbreviates: 1 μM ATP (Km level), 30 ng/ml ALK, 37° C., 15 minutes, read-out: ALK Activity (ALK kinase inhibition, IC50 class).
The mark [10] stands for this setting: 1 μM ATP (Km level), 10 ng/mL c-Met, read-out: cMet Activity (c-Met kinase inhibition, IC50 class).

Where two headings read alike, the source gives them in different places. Where only a bound is given, the exact number is not on record here.

T2 sequence (P08581 956-1390 limits assumed): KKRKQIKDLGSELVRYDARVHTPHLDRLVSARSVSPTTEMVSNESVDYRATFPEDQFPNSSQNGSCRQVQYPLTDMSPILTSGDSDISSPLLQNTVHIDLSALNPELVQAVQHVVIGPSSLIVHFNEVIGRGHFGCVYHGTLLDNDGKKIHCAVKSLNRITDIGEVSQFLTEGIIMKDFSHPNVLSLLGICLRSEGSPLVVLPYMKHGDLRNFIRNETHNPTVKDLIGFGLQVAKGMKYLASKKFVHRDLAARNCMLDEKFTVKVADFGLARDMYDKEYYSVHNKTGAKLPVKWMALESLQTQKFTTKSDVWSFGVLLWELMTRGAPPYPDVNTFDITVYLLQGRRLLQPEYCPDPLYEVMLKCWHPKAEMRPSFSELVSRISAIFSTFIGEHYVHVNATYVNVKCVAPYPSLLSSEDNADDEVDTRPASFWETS
T1 sequence (Q9UM73 19-1620): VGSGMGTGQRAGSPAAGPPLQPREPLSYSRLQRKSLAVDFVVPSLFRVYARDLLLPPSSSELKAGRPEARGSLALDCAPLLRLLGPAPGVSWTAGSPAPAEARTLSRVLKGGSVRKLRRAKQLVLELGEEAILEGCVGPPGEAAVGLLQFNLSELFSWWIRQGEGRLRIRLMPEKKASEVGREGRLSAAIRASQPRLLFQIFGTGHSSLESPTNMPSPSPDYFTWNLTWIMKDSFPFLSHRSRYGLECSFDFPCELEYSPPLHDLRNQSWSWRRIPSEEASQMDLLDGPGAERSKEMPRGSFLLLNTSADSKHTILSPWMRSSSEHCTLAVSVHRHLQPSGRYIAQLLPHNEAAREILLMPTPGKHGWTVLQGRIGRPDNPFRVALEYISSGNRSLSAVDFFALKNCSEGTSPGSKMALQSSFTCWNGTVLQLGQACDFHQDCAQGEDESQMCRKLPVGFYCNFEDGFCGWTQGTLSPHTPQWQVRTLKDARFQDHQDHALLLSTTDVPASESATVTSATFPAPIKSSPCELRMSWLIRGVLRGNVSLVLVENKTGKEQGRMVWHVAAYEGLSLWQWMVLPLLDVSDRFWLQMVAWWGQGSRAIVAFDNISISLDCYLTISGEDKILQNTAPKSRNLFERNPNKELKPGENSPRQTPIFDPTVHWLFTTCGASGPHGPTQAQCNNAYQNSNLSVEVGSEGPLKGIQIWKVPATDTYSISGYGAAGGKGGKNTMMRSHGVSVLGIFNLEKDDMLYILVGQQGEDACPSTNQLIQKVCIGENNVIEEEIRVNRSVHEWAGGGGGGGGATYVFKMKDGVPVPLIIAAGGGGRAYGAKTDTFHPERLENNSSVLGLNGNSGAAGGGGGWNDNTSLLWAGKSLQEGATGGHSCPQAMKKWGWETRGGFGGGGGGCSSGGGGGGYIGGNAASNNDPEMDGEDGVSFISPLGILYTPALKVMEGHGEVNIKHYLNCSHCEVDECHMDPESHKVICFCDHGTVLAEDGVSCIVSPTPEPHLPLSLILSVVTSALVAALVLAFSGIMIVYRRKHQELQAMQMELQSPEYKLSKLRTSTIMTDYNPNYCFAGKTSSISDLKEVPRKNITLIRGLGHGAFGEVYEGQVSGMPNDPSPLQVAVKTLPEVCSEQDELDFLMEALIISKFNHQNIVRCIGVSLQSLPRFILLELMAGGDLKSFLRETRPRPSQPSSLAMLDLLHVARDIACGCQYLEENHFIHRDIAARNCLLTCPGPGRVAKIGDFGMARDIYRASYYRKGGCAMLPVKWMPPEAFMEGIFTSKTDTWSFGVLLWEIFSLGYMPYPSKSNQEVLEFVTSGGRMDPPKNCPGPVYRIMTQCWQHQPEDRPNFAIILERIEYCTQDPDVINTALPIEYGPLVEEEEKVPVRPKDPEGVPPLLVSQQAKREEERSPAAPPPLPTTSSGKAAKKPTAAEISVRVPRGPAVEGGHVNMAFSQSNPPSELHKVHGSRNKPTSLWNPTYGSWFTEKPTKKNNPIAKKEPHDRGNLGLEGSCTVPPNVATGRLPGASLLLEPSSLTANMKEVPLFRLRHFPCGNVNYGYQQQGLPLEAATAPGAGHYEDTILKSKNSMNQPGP

Regarding “2-{5-Chloro-2-[1-methoxy-7-(4-methyl-piperazin-1-yl)-6,7,8,9-tetrahydro-5H-benzocyclohepten-2-ylamino]-pyrimidin-4-ylamino}-N,N-dimethyl-benzenesulfonamide [Example 912]”, the IC50 in test [1] (setting [3]) was less than 100 nM; in test [2] (setting [4]) it was more than 10000 nM.
Consider `CN1C(=O)CCCc2cc(Nc3ncc(Cl)c(Nc4ccc(N5CCCCC5)cc4C(N)=O)n3)ccc21` [Example 354, 2-[5-Chloro-2-(1-methyl-2-oxo-2,3,4,5-tetrahydro-1H-benzo[b]azepin-7-ylamino)-pyrimidin-4-ylamino]-5-piperidin-1-yl-benzamide], for which the IC50 in test [1] (setting [5]) and in test [2] (setting [6]) was less than 100 nM throughout.
Consider `Cc1n[nH]c(-c2ccccc2Nc2nc(Nc3ccc4c(c3)CCOC(=O)N4C)ncc2Cl)n1` [Example 1788, 2-{5-Chloro-4-[2-(5-methyl-2H-[1,2,4]triazol-3-yl)-phenylamino]-pyrimidin-2-ylamino}-5-methyl-8,9-dihydro-5H-7-oxa-5-aza-benzocyclohepten-6-one], for which the IC50 in test [1] (setting [7]) and in test [2] (setting [8]) was less than 100 nM each time.
With `CNC(=O)c1ccccc1Nc1nc(Nc2cc3c(cc2OC)CCN(CCN2CCOCC2)CC3)ncc1Cl` [Example 1524, 2-{5-Chloro-2-[8-methoxy-3-(2-morpholin-4-yl-ethyl)-2,3,4,5-tetrahydro-1H-3-benzazepin-7-ylamino]-pyrimidin-4-ylamino}-N-methyl-benzamide], the IC50 in test [1] (setting [7]) was less than 100 nM; in test [2] (setting [8]) it was 1000 to 10000 nM.
Take `CNC(=O)c1ccccc1Nc1nc(Nc2ccc3c(c2)C2CCC3CN(S(C)(=O)=O)C2)ncc1Cl` (stereo not drawn) [Example 278, 2-[5-Chloro-2-(10-methanesulfonyl-10-aza-tricyclo[6.3.2.0*2,7*]trideca-2,4,6-trien-4-ylamino)-pyrimidin-4-ylamino]-N-methyl-benzamide]: the IC50 in test [1] (setting [5]) and in test [2] (setting [6]) was less than 100 nM in each case.
For the compound `COc1cc2c(cc1Nc1ncc(Cl)c(Nc3ccccc3S(=O)(=O)N3CCCC3)n1)CCC(NCCO)CC2` (stereo not drawn) [Example 1087, 2-(2-{5-Chloro-4-[2-(pyrrolidine-1-sulfonyl)-phenylamino]-pyrimidin-2-ylamino}-3-methoxy-6,7,8,9-tetrahydro-5H-benzocyclohepten-7-ylamino)-ethanol], the IC50 in test [1] (setting [9]) was less than 100 nM; in test [2] (setting [10]), 1000 to 10000 nM.
For `COCCN1CCc2cc(Nc3ncc(Cl)c(NC4C5C=CC(C5)C4C(=O)N(C)C)n3)c(OC)cc2CC1` (stereo not drawn) [Example 606, (2-exo-3-exo)-3-{5-Chloro-2-[8-methoxy-3-(2-methoxy-ethyl)-2,3,4,5-tetrahydro-1H-benzo[d]azepin-7-ylamino]-pyrimidin-4-ylamino}-bicyclo[2.2.1]hept-5-ene-2-carboxylic acid dimethylamide], the IC50 in test [1] (setting [3]) was less than 100 nM; in test [2] (setting [4]), more than 10000 nM.
In the case of `CCN1CCc2ccc(Nc3ncc(Cl)c(NC(C)CNS(C)(=O)=O)n3)cc2CC1` (stereo not drawn) [Example 302, N-{2-[5-Chloro-2-(3-ethyl-2,3,4,5-tetrahydro-1H-benzo[d]azepin-7-ylamino)-pyrimidin-4-ylamino]-propyl}-methanesulfonamide], the IC50 in test [1] (setting [5]) is less than 100 nM; in test [2] (setting [6]), 1000 to 10000 nM.
Taken in the same sequence, the figures for `CC1CNC(=O)c2c(Nc3ncc(Cl)c(N[C@@H]4CCCC[C@H]4NS(C)(=O)=O)n3)cccc2N1C(=O)C(F)(F)F` (stereo partly drawn) [Example 231, N-((1R,2R)-2-{5-Chloro-2-[2-methyl-5-oxo-1-(2,2,2-trifluoro-acetyl)-2,3,4,5-tetrahydro-1H-benzo[e][1,4]diazepin-6-ylamino]-pyrimidin-4-ylamino}-cyclohexyl)-methanesulfonamide] were 100 to 1000 nM and 1000 to 10000 nM.
With `CCN1C(=O)CN(C(C)=O)Cc2ccc(Nc3ncc(Cl)c(Nc4c(F)cccc4C(=O)NC)n3)cc21` [Example 1851, 2-[2-(4-Acetyl-1-ethyl-2-oxo-2,3,4,5-tetrahydro-1H-benzo[e][1,4]diazepin-8-ylamino)-5-chloro-pyrimidin-4-ylamino]-3-fluoro-N-methyl-benzamide], the IC50 in test [1] (setting [7]) is 1000 to 10000 nM; in test [2] (setting [8]), less than 100 nM.
For `CCN1CCN(CC)c2cc(Nc3ncc(Cl)c(Nc4c(F)cccc4C(=O)NC)n3)ccc2C1` [Example 716, 2-[5-Chloro-2-(1,4-diethyl-2,3,4,5-tetrahydro-1H-1,4-benzodiazepin-8-ylamino)-pyrimidin-4-ylamino]-3-fluoro-N-methyl-benzamide], the IC50 in test [1] (setting [3]) and in test [2] (setting [4]) was less than 100 nM each time.
On to `COc1ccc2c(c1Nc1ncc(Cl)c(Nc3ccccc3-n3cccn3)n1)CCC(N1CCOCC1)CC2` (stereo not drawn) [Example 1071, 5-Chloro-N*2*-(2-methoxy-7-morpholin-4-yl-6,7,8,9-tetrahydro-5H-benzocyclohepten-1-yl)-N*4*-(2-pyrazol-1-yl-phenyl)-pyrimidine-2,4-diamine], for which the IC50 in test [1] (setting [9]) is 100 to 1000 nM; in test [2] (setting [10]), more than 10000 nM.
As to `CCN1C(=O)C(NC(=O)CN(C)C)CCc2ccc(Nc3ncc(Cl)c(Nc4c(F)cccc4C(=O)NC)n3)cc21` (stereo not drawn) [Example 1496, 2-{5-Chloro-2-[3-(2-dimethylamino-acetylamino)-1-ethyl-2-oxo-2,3,4,5-tetrahydro-1H-benzo[b]azepin-8-ylamino]-pyrimidin-4-ylamino}-3-fluoro-N-methyl-benzamide], the IC50 in test [1] (setting [7]) is 100 to 1000 nM; in test [2] (setting [8]), less than 100 nM.
Regarding `CNC(=O)c1ccccc1Nc1nc(Nc2ccc3c(c2)C2CCC3CN(C(C)=O)C2)ncc1Cl` (stereo not drawn) [Example 283, 2-[2-(10-Acetyl-10-aza-tricyclo[6.3.2.0*2,7*]trideca-2,4,6-trien-4-ylamino)-5-chloro-pyrimidin-4-ylamino]-N-methyl-benzamide], the IC50 in test [1] (setting [5]) and in test [2] (setting [6]) was less than 100 nM throughout.
With `CNS(=O)(=O)c1ccccc1Nc1nc(Nc2ccc3c(c2)CCCC(=O)N3CC(=O)N2CCN(C)CC2)ncc1Cl` [Example 10, 2-(5-Chloro-2-{1-[2-(4-methyl-piperazin-1-yl)-2-oxo-ethyl]-2-oxo-2,3,4,5-tetrahydro-1H-benzo[b]azepin-7-ylamino}-pyrimidin-4-ylamino)-N-methyl-benzenesulfonamide], the IC50 in test [1] (setting [5]) and in test [2] (setting [6]) was less than 100 nM in each case.
As to `CCN1CC2CC(C1)c1cc(Nc3ncc(Cl)c(Nc4ccccc4S(=O)(=O)NC)n3)ccc12` (stereo not drawn) [Example 157, 2-[5-Chloro-2-(10-ethyl-10-aza-tricyclo[6.3.1.0*2,7*]dodeca-2,4,6-trien-4-ylamino)-pyrimidin-4-ylamino]-N-methyl-benzenesulfonamide], the IC50 is less than 100 nM in test [1] (setting [5]) and 1000 to 10000 nM in test [2] (setting [6]).
As to `COc1ccc2c(c1Nc1ncc(Cl)c(N[C@@H]3CCCC[C@H]3NS(C)(=O)=O)n1)CN(Cc1ccccc1)CC(=O)N2` [Example 1654, N-{(1R,2R)-2-[2-(4-Benzyl-7-methoxy-2-oxo-2,3,4,5-tetrahydro-1H-benzo[e][1,4]diazepin-6-ylamino)-5-chloro-pyrimidin-4-ylamino]-cyclohexyl}-methanesulfonamide], the IC50 in test [1] (setting [7]) is 1000 to 10000 nM; in test [2] (setting [8]), more than 10000 nM.
Take `CCN1CCN(CC)c2cc(Nc3ncc(Cl)c(N[C@H]4[C@@H]5CC[C@@H](C5)[C@H]4C(N)=O)n3)ccc2C1` [Example 717, (2-exo,3-exo)-3-[5-Chloro-2-(1,4-diethyl-2,3,4,5-tetrahydro-1H-1,4-benzodiazepin-8-ylamino)-pyrimidin-4-ylamino]bicyclo[2.2.1]heptane-2-carboxylic acid amide]: the IC50 in test [1] (setting [3]) is less than 100 nM; in test [2] (setting [4]), 1000 to 10000 nM.
